Data: patent US5241065A, “2,3,4,5-tetrahydro-1H-3-benzazepines having anti-psychotic activity” (Schering Corporation, priority 1992, dated 1993)
Like-named read-outs stand apart in the source and are kept apart here.

What was measured:
squirrel monkeys = assay: Suppression of conditioned avoidance response (CAR) in squirrel monkeys; assay type: in vivo; settings: Saimiri, in Primates, po, read-out: Monkey CAR, minimal effective dose (MED)
Excerpt: This test is designed to measure the effective duration of candidate compounds.
Male or female squirrel monkeys weighing 800-1200 g housed one per cage are utilized. Initially each monkey is taught to terminate both a 3mA electric shock delivered through the grid floor of the test cage and an overlapping tone by depressing a lever in the cage.
In the second phase of the testing, a ten second tone is turned on prior to the shock component. A lever pass during the sounding of the tone terminates the tone and prevents the occurrence of the shock component and is denoted as an "avoidance".
The compound testing is commenced after three consecutive days of re-testing. […] The monkey must achieve at lest an 85% correct avoidance before drug testing commences. If this minimal avoidance level is achieved, the next day the monkey is orally dosed or injected with the subject compounds in the appropriate vehicle, and the number of avoidances are recorded. An animal is defined as having been "affected" by any drug treatment if there is a 50% loss of avoidance behavior relative to the performance of the animal when only the vehicle is injected. The minimal effective dose (MED) is defined as that dose producing an effect in at least 50% of the animals.
A test may be conducted to determine the effective duration of a compound in accordance with the present invention by comparing a compound of the invention to the known compound SCH 23390. A compound of the invention administered 60 minutes prior to the test is compared to SCH 23390 administered 30 minutes prior to test. The duration of each compound is determined by administering a 12.0 mg/kg p.o. dose six hours prior to testing.

rat = assay: Toxicity, rat; assay type: in vivo; settings: for Toxicity, rat: result in words, dose in mpk within the value
Excerpt: The compounds of this invention are substantially non-toxic at the therapeutic close, as is shown in the following Table 4, which compares them with related reference compounds: […]

D-2 receptor = molecular target: T1, D-2 receptor (Rattus norvegicus, UniProt P61169); assay: Competitive inhibition assay, 3H-spiperone binding to rat striatal tissue (D-2); parameters: species or system Male Sprague-Dawley rats; settings: rat striatal homogenate, 0.2 nM 3H-spiperone, pH 7.4, 37° C., 15 minutes, read-out: Ki against 3H-spiperone
T1 construct: Striatal tissue was excised, pooled, and homogenized; from tissue; host or cells: rat striatum (Sprague-Dawley), washed membrane homogenate
Excerpt: (§1) Many compounds capable of effecting reproducible physiological changes in neural tissues are believed to operate by binding at one or more receptor sites.
(§2) A methodology for characterization of binding and an interpretation of the data are described by Billard et al., Life Sciences 35, 1885 (1984) in which the binding of (R)-(+)-7-chloro-8-hydroxy-3-methyl-1-phenyl-2,3,4,5-tetrahydro-1H-3-benzazepine (SCH 23390) (as its hemi-maleate) to the dopamine D-1 receptor is characterized.
(§3) Tritiated SCH 23390 and tritiated spiperone (a potent D-2 ligand) were obtained as described in the Billard et al. reference supra and serially diluted in 0.05 M Tris buffer, pH 7.4, as required. A compound of the invention was diluted in 0.05 M Tris buffer, pH 7.4, as required.
(§4) Male Sprague-Dawley rats (200 to 250 g) from Charles River Breeding Laboratories, Mass., were used to obtain brain tissue. The rats were humanely sacrificed and their brains removed and placed on ice. Striatal tissue was excised, pooled, and homogenized (Brinkman Polytron, 10 sec) in 100 volumes (w/v) of ice cold 50 mM Tris buffer, pH 7.4 (at 25° C.). The homogenate was centrifuged at 20,000 x g for 10 min. The resulting pellet was re-homogenized in Tris buffer and centrifuged again. The final pellet was resuspended in 50 mM Tris buffer, pH 7.4 containing 120 mM NaCl, 5 mM KCl, 2 mM CaCl2, and 1 mM MgCl2.
(§5) Polypropylene incubation tubes received 100 μl of the individual test compounds at various concentrations dissolved or suspended in 0.05 M Tris buffer, pH 7.4 containing 4 mg/ml methylcellulose, 100 μl of a solution of ^3 H-SCH 23390 in Tris buffer (final reaction mixture concentration=0.3nM) or 100 μl of a solution of ^3 H-spiperone in Tris buffer (final concentration=0.2 nM) and 800 μl of tissue suspension (ca. 3 mg/assay). Tubes were incubated at 37° C. for 15 minutes and rapidly vacuum filtered through Whatman GF/B filters and rinsed 4 times with 4 ml of ice cold 50 mM Tris buffer, pH 7.4. The filters were transferred to scintillation vials, equilibrated with 10 ml of scintillant (Scintosol, Isolab, Inc.) for 16 hours at 25° C., and the radioactivity was determined in a liquid scintillation counter. Ki values were determined as described by Billard et al. using the relationship: K i =IC50 /(1+([…])) wherein IC50 =concentration of test drug necessary to displace 50% of specifically bound ^3 H-SCH 23390, [L]=concentration of radioligand used in the assay, and KD =dissociation constant.

dopamine D-1 receptor = molecular target: T2, dopamine D-1 receptor (Rattus norvegicus, UniProt P18901); assay: Competitive inhibition assay, 3H-SCH 23390 binding to rat striatal tissue (dopamine D-1); parameters: species or system Male Sprague-Dawley rats; settings: rat striatal homogenate, 0.3 nM 3H-SCH 23390, pH 7.4, 37° C., 15 minutes, read-out: Ki against 3H-SCH 23390
T2 construct: Striatal tissue was excised, pooled, and homogenized; from tissue; host or cells: rat striatum (Sprague-Dawley), washed membrane homogenate
Excerpt: as §1, §2, §3, §4, §5

rats = assay: Conditioned avoidance response (CAR) suppression in rats; assay type: in vivo; settings: Rattus norvegicus, read-out: Rat CAR, minimal effective dose (MED)
Protocol: N.Y. Acad. Sci. 66, 740 (1957)]. A series of experiments was carried out to assess the ability of the compounds of this invention to suppress the conditioned avoidance response (CAR) in rats.
Rats were required to jump onto a platform located 6.75 inches (17.15 cm) above the grid floor of an experimental chamber in response to a 5-second tone to avoid a 10-second foot shock (0.6 ma). Each experimental session consisted of 20 such trials presented at 30-second intervals. A correct CAR is scored whenever the rat jumps onto the platform during the tone (prior to foot shock). An escape response is scored when the rat jumps onto the platform during a shock. A response failure is defined as the lack of an escape response during the 10-second shock period.
Groups of 6-8 rats were trained in two consecutive days (total of 40 trials). Rats that reached criterion on day 2 (correct CARs in 16 or more of the 20 trials) were treated with either a test drug or a vehicle on day 3. Suppression of CAR was analyzed statistically using Student's t-test comparing the performances of drug-treated to vehicle-treated rats.

T1 sequence (P61169 whole entry): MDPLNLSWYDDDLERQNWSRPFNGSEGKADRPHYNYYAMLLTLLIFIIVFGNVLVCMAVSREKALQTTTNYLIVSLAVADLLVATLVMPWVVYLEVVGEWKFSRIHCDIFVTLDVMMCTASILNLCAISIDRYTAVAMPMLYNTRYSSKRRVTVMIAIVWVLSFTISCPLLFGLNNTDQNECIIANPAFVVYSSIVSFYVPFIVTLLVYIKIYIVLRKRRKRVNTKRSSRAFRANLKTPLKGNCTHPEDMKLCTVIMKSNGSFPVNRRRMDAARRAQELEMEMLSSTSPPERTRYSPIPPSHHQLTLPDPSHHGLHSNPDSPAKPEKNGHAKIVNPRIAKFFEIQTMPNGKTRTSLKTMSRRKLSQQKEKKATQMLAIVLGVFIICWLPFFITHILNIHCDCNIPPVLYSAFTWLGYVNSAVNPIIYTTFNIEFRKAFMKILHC
T2 sequence (P18901 whole entry): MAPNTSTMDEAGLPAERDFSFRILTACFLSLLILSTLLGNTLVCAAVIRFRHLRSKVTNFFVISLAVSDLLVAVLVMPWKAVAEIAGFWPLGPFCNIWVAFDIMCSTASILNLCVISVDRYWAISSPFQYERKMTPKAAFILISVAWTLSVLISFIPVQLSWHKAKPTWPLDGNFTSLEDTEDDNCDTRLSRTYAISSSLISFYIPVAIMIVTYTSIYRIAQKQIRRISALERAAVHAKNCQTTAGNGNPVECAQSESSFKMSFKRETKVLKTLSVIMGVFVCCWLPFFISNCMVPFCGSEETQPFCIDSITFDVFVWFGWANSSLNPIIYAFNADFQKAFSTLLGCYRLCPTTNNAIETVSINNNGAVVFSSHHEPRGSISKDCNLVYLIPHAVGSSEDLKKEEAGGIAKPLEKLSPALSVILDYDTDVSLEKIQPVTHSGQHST

| Structure (SMILES) | Ki (D-2 receptor) [nM] | Ki (dopamine D-1 receptor) [nM] | minimal effective dose (rats; po (per oral)) [mg/kg] | Toxicity, rat (rat) | also measured |
| --- | --- | --- | --- | --- | --- |
| Cc1cc2c(cc1O)C(C1=CCCCC1)CN(C)CC2 (racemic) [A, (R,S)-1-(1-cyclohexenyl)-8-hydroxy-3,7-dimethyl-2,3,4,5-tetrahydro-1H-3-benzazepine, reference compound] | 1880 | 8.7 | > 30 |  | minimal effective dose (squirrel monkeys): 3 mg/kg; minimal effective dose (squirrel monkeys; at 1 hour): 10 mg/kg; Toxicity, rat: salivation (rat; 10 mpk po, after 1 hour): salivation in 1 of 3 rats |
| CC1=C(C2CN(C)CCc3cc(Cl)c(O)cc32)CCC1 (racemic) [G, (R,S)-7-chloro-8-hydroxy-3-methyl-(2-methyl-1-cyclopentenyl)-2,3,4,5-tetrahydro-1H-3-benzazepine] | 656 | 0.27 | 10 | Non-toxic at 300 mpk | minimal effective dose (squirrel monkeys): 5 mg/kg; minimal effective dose (squirrel monkeys; at 6 hours): 20 mg/kg; minimal effective dose (rats; po, at 6 hours): 50 mg/kg; minimal effective dose (rats; sc (subcutaneous)): 0.01 mg/kg |
| CN1CCc2cc(Cl)c(O)cc2C(C2=CCCCC2)C1 (racemic) [K, (R,S)-7-chloro-1-(1-cyclohexenyl)-8-hydroxy-3-methyl-2,3,4,5-tetrahydro-1H-3-benzazepine] | 1440 | 2.2 |  |  |  |
| CC1=C(C2CN(C)CCc3cc(Cl)c(O)cc32)CCCC1 (racemic) [N, (R,S)-7-chloro-8-hydroxy-3-methyl-1-(2-methyl-1-cyclohexenyl)-2,3,4,5-tetrahydro-1H-3-benzazepine] | 420 | 0.83 | 30 |  |  |
| CN1CCc2cc(Cl)c(O)cc2C(C2=CCCC2)C1 (racemic) [Q, (R,S)-7-chloro-1-(1-cyclopentenyl)-8-hydroxy-3-methyl-2,3,4,5-tetrahydro-1H-3-benzazepine] | 595 | 2.3 |  |  |  |
| Cc1cc2c(cc1O)[C@H](C1=CCCCC1)CN(C)CC2 [B, (S)-1-(1-cyclohexenyl)-8-hydroxy-3,7-dimethyl-2,3,4,5-tetrahydro-1H-3-benzazepine, reference compound] | 4370 | 101 | > 30 |  |  |
| Cc1cc2c(cc1O)[C@@H](C1=CCCCC1)CN(C)CC2 [C, (R)-1-(1-cyclohexenyl)-8-hydroxy-3,7-dimethyl-2,3,4,5-tetrahydro-1H-3-benzazepine, reference compound] | 1670 | 4 |  |  | minimal effective dose (rats; sc (subcutaneous)): 0.1 mg/kg |
| CN1CCc2cc(Cl)c(O)cc2C(C2CCCC2)C1 (stereo not drawn) [D, reference compound] |  |  | > 30 |  | minimal effective dose (rats; sc (subcutaneous)): 3 mg/kg |
| Cc1cc2c(cc1O)C(C1CCCCC1)CN(C)CC2 (stereo not drawn) [E, reference compound] | 3610 | 48 | 10 | Lethal at 300 mpk | minimal effective dose (rats; sc (subcutaneous)): 3 mg/kg |
| Cc1cc2c(cc1O)C(C1CCCC1)CN(C)CC2 (stereo not drawn) [F, reference compound] | 1050 | 44 |  | Lethal at 300 mpk |  |
| CC1=C([C@H]2CN(C)CCc3cc(Cl)c(O)cc32)CCC1 [H, (R)-7-chloro-8-hydroxy-3-methyl-1-(2-methyl-1-cyclopentenyl)-2,3,4,5-tetrahydro-1H-3-benzazepine] | 358 | 0.43 | 5 | Non-toxic at 150 mpk | minimal effective dose (squirrel monkeys): 2 mg/kg; minimal effective dose (squirrel monkeys; at 4 hours): 10 mg/kg; minimal effective dose (rats; po, at 6 hours): 25 mg/kg |
| CC1=C([C@@H]2CN(C)CCc3cc(Cl)c(O)cc32)CCC1 [J, (S)-7-chloro-8-hydroxy-3-methyl-1-(2-methyl-1-cyclopentenyl)-2,3,4,5-tetrahydro-1H-3-benzazepine] | 3690 | 15 | > 30 |  |  |
| CN1CCc2cc(Cl)c(O)cc2[C@H](C2=CCCCC2)C1 [L, (S)-7-chloro-1-(1-cyclohexenyl)-8-hydroxy-3-methyl-2,3,4,5-tetrahydro-1H-3-benzazepine] | 2080 | 23 | > 30 |  |  |
| CN1CCc2cc(Cl)c(O)cc2[C@@H](C2=CCCCC2)C1 [M, (R)-7-chloro-1-(1-cyclohexenyl)-8-hydroxy-3-methyl-2,3,4,5-tetrahydro-1H-3-benzazepine] | 1090 | 0.87 | 10 | Secretions at 300 mpk |  |
| CC(C)=C(C)C1CN(C)CCc2cc(Cl)c(O)cc21 (stereo not drawn) [P] | 554 | 2.8 | 10 |  |  |
